In article PMC4317638 (Emerging Microbes & Infections, 2014):
Like-named read-outs stand apart in the source and are kept apart here.

Columns and labels:
[1] = system: Ebola VLP entry into HeLa cells; assay: microbe, parasite or virus in culture; type: cell-based, Ebola virus; conditions: for IC90: read-out: Block Ebola VLP entry IC90; for Emax: read-out: Block Ebola VLP entry Max. Inh.
Ebola virus infection [2] = conditions: cited from earlier work
Ebola virus infection [3] = conditions: in vivo; cited from earlier work
in vitro = conditions: human, Cytotoxicity IC50
[4] = read-out: Block Ebola VLP entry IC50
[5] = Zaire ebolavirus, HeLa, read-out: Block Ebola VLP entry IC50
[6] = Zaire ebolavirus, HeLa, read-out: IC50 of blocking Ebola VLP entry

| Compound | IC90 ([1]; Zaire ebolavirus, HeLa) [µM] | Emax ([1]; Zaire ebolavirus, HeLa) [%] | Block of Ebola virus infection (Ebola virus infection [2]) | Efficacy in a mouse infection model (Ebola virus infection [3]) | IC50 (in vitro) [µM] | Block Ebola VLP entry Max. Inh. [1] [%] | Selectivity Index [1] | IC50 [1, 4] [µM] | IC90 [1] [µM] | IC50 (HeLa cells; human) [µM] | IC50 [1, 5] [µM] | IC50 [1, 6] [µM] | Cytotoxicity (HeLa cells) | IC50 (HeLa cells) [µM] | IC50 ([1]; read-out: IC50 of blocking Ebola VLP entry) [µM] |
| --- | --- | --- | --- | --- | --- | --- | --- | --- | --- | --- | --- | --- | --- | --- | --- |
| CCN(CC)CCOc1ccc(C(=C(Cl)c2ccccc2)c2ccccc2)cc1 [Clomiphene] | 5.34 | 92 | effectively block Ebola virus infection | effective in a mouse infection model | 91.4 |  |  |  |  |  |  |  |  |  |  |
| COc1cccc2c1C(=O)c1c(O)c3c(c(O)c1C2=O)C[C@@](O)(C(C)=O)C[C@@H]3O[C@H]1C[C@H](N)[C@H](O)[C@H](C)O1 [Daunorubicin] |  |  |  |  |  | 96 | 103 fold | 2.43 | 4.45 | 250 |  |  |  |  |  |
| C[C@H]1O[C@@H](O[C@H]2[C@@H](O)C[C@H](O[C@H]3[C@@H](O)C[C@H](O[C@H]4CC[C@@]5(C)[C@H](CC[C@@H]6[C@@H]5C[C@@H](O)[C@]5(C)[C@@H](C7=CC(=O)OC7)CC[C@]65O)C4)O[C@@H]3C)O[C@@H]2C)C[C@H](O)[C@@H]1O [Digoxin] | 3.45 | 68 |  |  | 250 |  | 327 fold |  |  |  | 0.763 | 0.76 | cytotoxicity at a compound concentration similar to that effective in blocking Ebola VLP entry |  |  |
| N=C(N)NN=C(/C=C/c1ccc([N+](=O)[O-])o1)/C=C/c1ccc([N+](=O)[O-])o1 [Nitrovin] |  |  |  |  |  | 95 |  | 4.85 | 7.14 |  |  |  |  | > 500 |  |
| CN1CCN(CC/C=C2/c3ccccc3Sc3ccc(S(=O)(=O)N(C)C)cc32)CC1 [Thiothixene] | 7.18 | 100 |  |  | 70.1 |  | 36 fold |  |  |  | 1.92 | 1.9 |  |  |  |
| CCN(CC)CCOc1ccc2c(c1)C(=O)c1cc(OCCN(CC)CC)ccc1-2 [Tilorone] | 19 | 100 |  |  | > 500 |  | >146 fold |  |  |  | 3.43 |  |  |  |  |
| CC[C@@]1(O)C(=O)OCc2c1cc1n(c2=O)Cc2cc3c(CN(C)C)c(O)ccc3nc2-1 [Topotecan] | 10.8 | 107 |  |  | > 500 |  | >130 fold |  |  |  | 3.85 |  |  |  |  |
| CN(C)CCOc1ccc(/C(=C(/CCCl)c2ccccc2)c2ccccc2)cc1 [Toremifene] | 3.73 | 98 | effectively block Ebola virus infection | effective in a mouse infection model | 180 |  | 316 fold |  |  |  | 0.566 | 0.56 |  |  | 0.55 |
| CN1CCN(CCCN2c3ccccc3Sc3ccc(C(F)(F)F)cc32)CC1 [Trifluoperazine] | 12 | 97 |  |  |  |  | 21 fold |  |  | 97 | 4.48 | 4.4 |  |  |  |
| CC[C@]1(O)C[C@@H]2CN(CCc3c([nH]c4ccccc34)[C@@](C(=O)OC)(c3cc4c(cc3OC)N(C)[C@H]3[C@@](O)(C(=O)OC)[C@H](OC(C)=O)[C@]5(CC)C=CCN6CC[C@]43[C@@H]65)C2)C1 [Vinblastine] | 0.13 | 87 |  |  | > 500 |  | >10 324 fold |  |  |  | 0.048 |  |  |  |  |
| CC[C@]1(O)C[C@H]2CN(CCc3c([nH]c4ccccc34)[C@@](C(=O)OC)(c3cc4c(cc3OC)N(C=O)[C@H]3[C@@](O)(C(=O)OC)[C@H](OC(C)=O)[C@]5(CC)C=CCN6CC[C@]43[C@@H]65)C2)C1 [Vincristine] | 0.258 | 83 |  |  | > 500 |  | >3554 fold |  |  |  | 0.141 | 0.14 |  |  |  |
| CCC1=C[C@@H]2CN(C1)Cc1c([nH]c3ccccc13)[C@@](C(=O)OC)(c1cc3c(cc1OC)N(C)[C@H]1[C@@](O)(C(=O)OC)[C@H](OC(C)=O)[C@]4(CC)C=CCN5CC[C@]31[C@@H]54)C2 [Vinorelbine/Navelbine, Vinorelbine] | 0.19 | 90 |  |  | > 500 |  | >7546 fold |  |  |  | 0.066 |  |  |  |  |
| Spiramycin |  |  |  |  |  | 92 |  |  | 11.7 |  |  |  |  | > 500 |  |
